# Read-outs that look alike come from different tables or passages of the source.
# Assays:
# PARG = PARG (Homo sapiens, UniProt Q86W56); assay: Biochemical assay (PARG, TFMU-ADPr substrate)
# [1] = test system: Human breast squamous carcinoma cells HCC1806; assay: Cell function assay (In-Cell Western, PAR/pADPr after MMS); assay type: cell-based
# Experimental: 2. Cell Function Assay (In-Cell Western)
# • 1) Human breast squamous carcinoma cells HCC1806 (ATCC) were seeded to the 384-well plate (Corning, #3764) at 20,000 cells/well, incubated for 24 h in a CO2 (5%) incubator at 37° C. to allow for complete adherence of the cells; • 2) 120 nL compounds or DMSO were added to the 384-well plate by Echo 550 (LABCYTE, #550) (final concentrations of compounds: 30000 nM, 10000 nM, 3000 nM, 1000 nM, 300 nM, 100 nM, 30 nM, 10 nM, 3 nM, 1 nM, 0 nM), and then the cells were incubated for 1 h in a CO2 (5%) incubator at 37° C.; • 3) 40 nL MMS (methyl mesylate, Sigma, #129925)(final concentration: 0.5 mM) was added to the plate by Echo 550, and the cells were treated for 1 h in a CO2 (5%) incubator at 37° C.
# [2] = 4 nM PARG, 66.2 uM TFMU-ADPr, 3 min at room temperature
# [3] = HCC1806, In-Cell Western, MMS treatment, read-out: IC50 (nM) in cell function assay
# [4] = HCC1806, compound 1 h then 0.5 mM MMS 1 h, PAR/pADPr antibody, In-Cell Western, read-out: IC50 (nM) in cell function assay
# [5] = HCC1806, 1 h, read-out: IC50 (nM) in cell function assay
# [6] = HCC1806, read-out: IC50 (nM) in cell function assay
# PARG, sequence (Q86W56 whole entry): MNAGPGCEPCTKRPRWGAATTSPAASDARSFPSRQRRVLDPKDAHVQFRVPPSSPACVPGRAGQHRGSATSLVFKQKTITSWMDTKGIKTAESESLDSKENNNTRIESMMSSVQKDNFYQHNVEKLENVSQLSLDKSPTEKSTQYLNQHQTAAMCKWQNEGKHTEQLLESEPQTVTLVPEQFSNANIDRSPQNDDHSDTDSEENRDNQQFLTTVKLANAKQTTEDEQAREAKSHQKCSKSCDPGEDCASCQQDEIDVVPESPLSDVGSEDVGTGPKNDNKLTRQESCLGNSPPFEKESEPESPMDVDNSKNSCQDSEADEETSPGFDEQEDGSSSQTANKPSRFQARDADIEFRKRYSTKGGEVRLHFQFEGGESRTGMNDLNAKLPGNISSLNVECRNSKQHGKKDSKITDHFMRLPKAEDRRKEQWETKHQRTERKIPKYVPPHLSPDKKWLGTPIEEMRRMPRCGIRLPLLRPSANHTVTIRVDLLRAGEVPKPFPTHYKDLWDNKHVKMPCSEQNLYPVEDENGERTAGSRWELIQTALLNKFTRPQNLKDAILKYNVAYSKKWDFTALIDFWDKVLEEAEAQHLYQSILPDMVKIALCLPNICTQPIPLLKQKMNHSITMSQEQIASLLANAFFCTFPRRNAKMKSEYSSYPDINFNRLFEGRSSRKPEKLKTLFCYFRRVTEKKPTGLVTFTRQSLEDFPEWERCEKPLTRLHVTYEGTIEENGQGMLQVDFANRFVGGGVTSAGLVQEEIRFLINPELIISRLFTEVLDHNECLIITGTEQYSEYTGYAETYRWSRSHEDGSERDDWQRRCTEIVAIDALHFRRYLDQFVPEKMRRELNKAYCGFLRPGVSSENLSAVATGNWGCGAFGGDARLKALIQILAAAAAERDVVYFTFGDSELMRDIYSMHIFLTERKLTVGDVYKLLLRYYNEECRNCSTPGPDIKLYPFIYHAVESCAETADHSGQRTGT
Compound,IC50 (PARG; [2]) [nM],"IC50 (PARG; PARG, TFMU-ADPr substrate) [nM]","IC50 [1, 3] [nM]","IC50 [1, 4] [nM]","IC50 [1, 5] [nM]","IC50 [1, 6] [nM]"
"O=S(=O)(NC1(CF)CC1)c1cc(N2CC3(COCCO3)C2)c2nnc(-c3nnc(C(F)F)s3)n2c1 [Example 113, 3-(5-(difluoromethyl)-1,3,4-thiadiazol-2-yl)-N-(1-(fluoromethyl)cyclopropyl)-8-(5,8-dioxa-2-azaspiro[3.5]nonan-2-yl)-[1,2,4]triazolo[4,3-a]pyridine-6-sulfonamide]",< 100,5.2,9,< 100,,
"CN1CC2(CCN(c3cc(S(=O)(=O)NC4(CF)CC4)cn4c(-c5nnc(C(F)F)s5)nnc34)CC2)CC1=O [Example 112, 3-(5-(difluoromethyl)-1,3,4-thiadiazol-2-yl)-N-(1-(fluoromethyl)cyclopropyl)-8-(2-methyl-3-oxo-2,8-diazaspiro[4.5]decan-8-yl)-[1,2,4]triazolo[4,3-a]pyridine-6-sulfonamide]",< 100,3.67,36.3,< 100,,
"CC(C)[C@@H]1CN(c2cc(S(=O)(=O)NC3(C#N)CC3)cn3c(-c4nnc(C(F)F)s4)ncc23)CCN1C(=O)C1(C)CC1 [Example 96, (R)-N-(1-cyanocyclopropyl)-3-(5-(difluoromethyl)-1,3,4-thiadiazol-2-yl)-8-(3-isopropyl-4-(1-methylcyclopropane-1-carbonyl)piperazin-1-yl)imidazo[1,5-a]pyridine-6-sulfonamide]",< 100,2.09,1.68,< 100,,
"CC(C)C(=O)N1CCN(c2cc(S(=O)(=O)NC3(C(F)F)COC3)cn3c(-c4nnc(C(F)F)s4)ncc23)CC1 [Example 149, 3-(5-(difluoromethyl)-1,3,4-thiadiazol-2-yl)-N-(3-(difluoromethyl)oxetan-3-yl)-8-(4-isobutyrylpiperazin-1-yl)imidazo[1,5-a]pyridine-6-sulfonamide]",< 100,6.23,57.7,< 100,,
"O=S(=O)(NC1(CF)CC1)c1cc(N2CCC3(CC2)COC3)c2nnc(-c3nnc(C(F)F)s3)n2c1 [Example 104, 3-(5-(difluoromethyl)-1,3,4-thiadiazol-2-yl)-N-(1-(fluoromethyl)cyclopropyl)-8-(2-oxa-7-azaspiro[3.5]nonan-7-yl)-[1,2,4]triazolo[4,3-a]pyridine-6-sulfonamide]",< 100,0.65,9.76,< 100,,
"N#CC1(NS(=O)(=O)c2cc(N3CCC4(CC3)COC4)c3cnc(-c4nnc(C(F)F)s4)n3c2)CC1 [Example 39, N-(1-cyanocyclopropyl)-3-(5-(difluoromethyl)-1,3,4-thiadiazol-2-yl)-8-(2-oxa-7-azaspiro[3.5]nonan-7-yl)imidazo[1,5-a]pyridine-6-sulfonamide]",< 100,2.72,13.2,< 100,,
"CC(C)C(=O)N1CCN(c2cc(S(=O)(=O)NC3(C#N)CC3)cc3c(-c4nnc(C(F)F)s4)cnn23)CC1 [Example 27, N-(1-cyanocyclopropyl)-3-(5-(difluoromethyl)-1,3,4-thiadiazol-2-yl)-7-(4-isobutyrylpiperazin-1-yl)pyrazolo[1,5-a]pyridine-5-sulfonamide]",< 100,4.98,,,100 to 500,76.3
"C[C@@H]1CN(c2cc(S(=O)(=O)NC3(C#N)CC3)cn3c(-c4nnc(C(F)F)s4)ncc23)CCN1C(=O)C1(F)CC1 [Example 77, (R)-N-(1-cyanocyclopropyl)-3-(5-(difluoromethyl)-1,3,4-thiadiazol-2-yl)-8-(4-(1-fluorocyclopropane-1-carbonyl)-3-methylpiperazin-1-yl)imidazo[1,5-a]pyridine-6-sulfonamide]",< 100,24,14.8,< 100,,
"CC(C)C(=O)N1CCN(c2cc(S(=O)(=O)NC3(C#N)CC3)cn3c(-c4nnc(C(F)F)s4)ncc23)C[C@@H]1C [Example 85, (S)-N-(1-cyanocyclopropyl)-3-(5-(difluoromethyl)-1,3,4-thiadiazol-2-yl)-8-(4-isobutyryl-3-methylpiperazin-1-yl)imidazo[1,5-a]pyridine-6-sulfonamide]",< 100,15.2,13.7,< 100,,
"CC(C)C(=O)N1CCN(c2cc(S(=O)(=O)NC3(C#N)CC3)cn3c(-c4nnc(C(F)F)s4)nc(Cl)c23)CC1 [Example 122, 1-chloro-N-(1-cyanocyclopropyl)-3-(5-(difluoromethyl)-1,3,4-thiadiazol-2-yl)-8-(4-isobutyrylpiperazin-1-yl)imidazo[1,5-a]pyridine-6-sulfonamide]",< 100,3.16,4.58,< 100,,
"[2H]C([2H])([2H])C1(NS(=O)(=O)c2cc(N3CCN(C(=O)C(C)C)CC3)c3cnc(-c4nnc(C(F)F)s4)n3c2)CC1 [Example 161, 3-(5-(difluoromethyl)-1,3,4-thiadiazol-2-yl)-8-(4-isobutyrylpiperazin-1-yl)-N-(1-(methyl-d3)cyclopropyl)imidazo[1,5-a]pyridine-6-sulfonamide]",< 100,0.88,,,< 100,1.02
"N#CC1(NS(=O)(=O)c2cc(N3CCC(O)CC3)c3cnc(-c4nnc(C(F)F)s4)n3c2)CC1 [Example 68, N-(1-cyanocyclopropyl)-3-(5-(difluoromethyl)-1,3,4-thiadiazol-2-yl)-8-(4-hydroxypiperidin-1-yl)imidazo[1,5-a]pyridine-6-sulfonamide]",< 100,25.1,34.7,< 100,,
"CC(C)C(=O)N1CCN(c2cc(S(=O)(=O)NC3(C)CC3)cn3c(-c4nnc(C(F)F)s4)nc(C#N)c23)CC1 [Example 163, 1-cyano-3-(5-(difluoromethyl)-1,3,4-thiadiazol-2-yl)-8-(4-isobutyrylpiperazin-1-yl)-N-(1-methylcyclopropyl)imidazo[1,5-a]pyridine-6-sulfonamide]",< 100,1.58,5.14,< 100,,
"CC(C)C(=O)N1CCN(c2cc(S(=O)(=O)NC3(CF)CC3)cn3c(-c4nnc(C(F)F)s4)ncc23)CC1 [Example 31, 3-(5-(difluoromethyl)-1,3,4-thiadiazol-2-yl)-N-(1-(fluoromethyl)cyclopropyl)-8-(4-isobutyrylpiperazin-1-yl)imidazo[1,5-a]pyridine-6-sulfonamide]",< 100,0.84,4.7,< 100,,
"C#CC1(NS(=O)(=O)c2cc(N3CCN(C(=O)C(C)C)CC3)c3nnc(-c4nnc(C(F)F)s4)n3c2)COC1 [Example 101, 3-(5-(difluoromethyl)-1,3,4-thiadiazol-2-yl)-N-(3-ethynyloxetan-3-yl)-8-(4-isobutyrylpiperazin-1-yl)-[1,2,4]triazolo[4,3-a]pyridine-6-sulfonamide]",< 100,8.15,1540,> 1000,,
"C[C@@H]1CN(c2cc(S(=O)(=O)NC3(C)COC3)cn3c(-c4nnc(C(F)F)s4)ncc23)CCN1C(=O)C1(C)CC1 [Example 88, (R)-3-(5-(difluoromethyl)-1,3,4-thiadiazol-2-yl)-8-(3-methyl-4-(1-methylcyclopropane-1-carbonyl)piperazin-1-yl)-N-(3-methyloxetan-3-yl)imidazo[1,5-a]pyridine-6-sulfonamide]",< 100,8.69,6.77,< 100,,
"O=S(=O)(NC1(CF)CC1)c1cc(N2CCC(O)(C(F)(F)F)CC2)c2nnc(-c3nnc(C(F)F)s3)n2c1 [Example 115, 3-(5-(difluoromethyl)-1,3,4-thiadiazol-2-yl)-N-(1-(fluoromethyl)cyclopropyl)-8-(4-hydroxy-4-(trifluoromethyl)piperidin-1-yl)-[1,2,4]triazolo[4,3-a]pyridine-6-sulfonamide]",< 100,1.88,8.51,< 100,,
"CC(C)C[C@@H]1CN(c2cc(S(=O)(=O)NC3(C#N)CC3)cn3c(-c4nnc(C(F)F)s4)ncc23)CCN1C(=O)C1(C)CC1 [Example 97, (R)-N-(1-cyanocyclopropyl)-3-(5-(difluoromethyl)-1,3,4-thiadiazol-2-yl)-8-(3-isobutyl-4-(1-methylcyclopropane-1-carbonyl)piperazin-1-yl)imidazo[1,5-a]pyridine-6-sulfonamide]",< 100,5.01,7.52,< 100,,
"CC1(O)CC2(CCN(c3cc(S(=O)(=O)NC4(C#N)CC4)cn4c(-c5nnc(C(F)F)s5)ncc34)CC2)C1 [Example 53, N-(1-cyanocyclopropyl)-3-(5-(difluoromethyl)-1,3,4-thiadiazol-2-yl)-8-(2-hydroxy-2-methyl-7-azaspiro[3.5]nonan-7-yl)imidazo[1,5-a]pyridine-6-sulfonamide]",< 100,2.37,145,100 to 500,,
